In patent US7141561B2, “Substituted diaryl heterocycles, process for their preparation and their use as medicaments” (Sanofi-Aventis Deutschland GmbH, priority 2002, dated 2006):

System: female NMRI mice
Assay: Anorectic effect: cumulative condensed milk consumption of mice
Assay type: in vivo
Conditions: oral dose 30 mg/kg by gavage
Description: The anorectic effect was tested on female NMRI mice. After withdrawal of food for 17 hours, the test compound was administered by gavage. The animals were housed singly with free access to drinking water and were offered condensed milk 30 minutes after administration of the compound. Condensed milk consumption was determined every half hour for 7 hours, and the general wellbeing of the animals was observed. The measured milk consumption was compared with the vehicle-treated control animals.
Table 1: Anorectic effect measured as the reduction in the cumulative milk consumption of treated compared with control animals.

## CN(C)CCOc1ccc(-n2ccn(-c3ccc(Oc4ccccc4)cc3)c2=O)cc1 [Example 1, 1-[4-(2-Dimethylaminoethoxy)phenyl]-3-(4-phenoxyphenyl)-1,3-dihydroimidazol-2-one]
Female NMRI mice after 17 hours food withdrawal, N=5, consumption determined for 7 hours
  cumulative milk consumption of the treated animals: 5/1.7 ml
Female NMRI mice, compared with vehicle-treated control animals
  Reduction in the cumulative milk consumption as % of the control: 58%
